The test system of assay [1] is β-Gal-specific systemic IgG. The assay can be described thus: β-Gal-specific serum IgG ELISA after i.n. or s.c. immunisation with β-Gal plus glycolipid adjuvant. The assay is classed as in vivo, Balb/c mice. Particulars: day 38. As for the experimental part:
Co-administration of β-Gal with 10 μg glycolipids 1, 5 and 6 induced β-Gal-specific systemic IgG responses in Balb/c mice. Balb/c mice were immunized by the i.n. or s.c. route with β-Gal alone or together with glycolipids 1, 5 and 6 three times at 2-wk intervals. 10 days after the final immunization, the immunized mice were sacrified. The levels of β-Gal-specific systemic IgG were determined in Sera of mice immunized by the i.n. (A) and s.c. (B) route. […] The parenteral administration of with β-Gal co-administered with glycolipids 1, 5 and 6 doubled the β-Galactosidase-specific IgG titer (>500000) in comparison to animals which were immunized with β-Gal alone. Bars represent mean Ab titer or amount±SE in each group. […]
Balb/c mice were immunized by the i.n. or s.c. route with β-Gal alone or together with glycolipids 5 and 6 three times at 2-wk intervals. […] The levels of β-Gal-specific systemic IgG were determined in Sera of mice immunized by the i.n. (A) and s.c. (B) route. […]
Experimental protocol: six-eight weeks-old female BALB/c (H-2d) mice were purchased from Harlan Winkelmann GmbH (Borchen, Germany) and treated in accordance with local and European Community guidelines. […] Endpoint titers were expressed as the reciprocal log 2 of the last dilution, which gave an optical density at 405 nm of 0.1 units above the values of the negative controls after 15 to 30 min of incubation.

The test system of assay [2] is spleen cells of immunized mice. The assay can be described thus: Splenocyte proliferation ([3H]thymidine incorporation) after in vitro restimulation with β-Gal. In kind it is in vivo, Balb/c mice. To be noted: i.n., 10 μg glycolipid, restimulation with β-Gal for 4 days. As for the experimental part: (§1) Co-administration of β-Gal with 10 μg glycolipids 1, 5 and 6 induced a strong cellular immune responses against the β-Gal antigen in Balb/c mice. Balb/c mice were immunized by the i.n. or s.c. route with β-Gal alone or together with glycolipids 1, 5 and 6 three times at 2-wk intervals. 10 days after the final immunization, the immunized mice were sacrificed. Splenocytes of mice immunized by the i.n. (A) and s.c. (B) route were collected and cultured with different concentrations of the β-Gal-Protein for 4 days. […] Curves represent [^3H]thymidine incorporation (counts per minute, cpm) and Stimulation index (SI) in each group. Each group consists of five mice. Data are representative of three separate experiments.
as §1, with “with 20 up to 30” for “with 10”, “glycolipids” for “glycolipids 1,”, “represent [3H]thymidine incorpoaration” for “represent [^3H]thymidine incorporation”
Experimental protocol: Spleens were removed and pooled for analysis of cellular immune responses. Cells were grown in RPMI 1640 supplemented with 10% fetal calf serum, 100 U/ml of penicillin, 50 μg/ml of streptomycin, 5×10^−5 M 2-mercaptoethanol and 1 mM L-glutamine (GIBCO BRL, Karlsruhe, Germany) and maintained at 37° C. in a humidified 5% CO2 atmosphere. Spleen cell suspensions were adjusted to 5×10^6 cells/ml in complete medium, cells were seeded with 100 μl per well in a flat-bottomed 96-well microtiter plate (Nunc) and plates were incubated for 4 days. Unstimulated spleen cells were incubated in the presence of different concentrations of the new adjuvants to analyze the in vitro stimulation capacity of glycolipids 1, 5 or 6, respectively. T cellmediated immune responses were investigated at day 38 by measuring the proliferation of cells recovered from spleens after in vitro restimulation with β-Gal. Said spleen cells were obtained from vaccinated mice—said mice where immunized as described in Example 2—and incubated in the presence of different concentrations of the soluble β-Gal antigen. Each concentration was tested in triplicates. During the final 18 h of culture, 1 μCi of [^3H]thymidine (Amersham International, Freiburg, Germany) was added to each well. Cells were then harvested on paper filters (Filtermat A; Wallac, Freiburg, Germany) by using a cell harvester (Inotech, Wohlen, Switzerland), and the amount of incorporated [^3H]thymidine into the DNA of proliferating cells was determined by a β-scintillation counter (Wallac 1450, Micro-Trilux). The results are expressed as the arithmetic mean of [^3H]thymidine uptake in cpm.
A general note: Dividing cells build labelled thymidine or BrdU into new DNA.

On to β-Gal, for which the “β-Galactosidase-specific IgG titer in serum” value in assay [1] (10 μg glycolipid + 30 μg β-Gal, three immunisations) is < 1/10000 and very low antibody titers; in assay [1] (20 or 30 μg glycolipid + 30 μg β-Gal), < 1/10000. In assay [2], the “Stimulation index (SI), [3H]thymidine incorporation of spleen cells” value was “no effect”.

The values are drawn from patent publication US8211463B2, “Use of glycolipids as adjuvants” (Helmholtz-Zentrum Fuer Infektionsforschung GmbH, priority 2006, dated 2012).
